In PMC6868281, “In vivo clonal expansion and phenotypes of hypocretin-specific CD4^+ T cells in narcolepsy patients and controls” (Nature Communications, 2019):

Columns and labels:
[1] = test system: TCR27 (TRAJ24+ TCR) in J76-NFATRE-luc Jurkat cells; assay: T cell activation assay using NFAT-RE luciferase reporter, TCR27 Jurkat transfectants with K562-DQ6 APCs; type: cell-based, human; parameters: dose or concentration left out as unconfirmed; conditions: HCRT peptide, 1 × 10^5 K562-DQ6 APCs + 1 × 10^5 TCR27 J76-NFATRE-luc cells, 37 °C, 1 day; Nano-Glo chemiluminescence
Excerpt: Fig. 6 Validation of tetramer binding and TCR signaling. a TCRs tested by transfection into Jurkat-luciferase reporter system. b Dot-plots of Jurkat transfectants expressing TCRs as shown in a. Expression of GFP indicates a successful transfection of plasmids directing the expression of TCRs. c Tetramer staining of TCR^+ Jurkat cells with percentages of tetramer^+ cells indicated. d MFIs of the tetramer-associated signal on the surface of TCR^+ cells are compared. e Jurkat cells expressing the indicated TCR were incubated with DQ6-expressing APCs (HLA class II^- K562 cells transfected with DQ6) in the presence of HCRT peptides or control stimuli: PBS (negative) or anti-CD3/anti-CD28 Abs (positive). Luciferase activity reflecting TCR-mediated signaling was measured and analyzed as previously described. […] Significance (P < 0.05, bolded) is determined using t-test comparing the indicated TCR and the TCR control
To encode the entire α/β chains of a candidate TCR, the nucleotide sequences for CDR3α and CDR3β (Supplementary Data 3) were incorporated in frame with the corresponding V(D)J genes (IMGT/V-QUEST[43]). TCRα/β genes were then synthesized and cloned into a plasmid pEF1a-TCRA_2A_TCRB_IRES-AcGFP1 (by GenScript). Each reconstructed plasmid uses a mammalian promoter, EF1a to direct co-expression of α and β chains of one candidate TCR. TCRA and TCRB are separated by the 2A self-cleaving peptide sequence. For selection purposes, the plasmid also encodes the green fluorescence protein (GFP) and neomycin resistance gene, with expression driven by separate promoters. […]
The TCR transfectants of J76-NFATRE-luc cells expresses the NFAT-RE (response element)-luciferase reporter gene allowing the conversion of T cell activation signaling to luciferase activity. […] The co-culture was incubated with various stimuli at 37 °C for 1 day before quantification of the luciferase activity. […] The mixture was then transferred to a flat-bottom white 96-well plate (Costar) for a measurement of chemiluminescence using a plate reader.

[2] = test system: CD4+ T cells from T1N donors; assay: In vitro peptide stimulation of CD4+ T cells with peptide-loaded fixed T2DQ6 cells, then DQ6-peptide tetramer staining; type: cell-based, human; conditions: for Frequency of corresponding DQ6-peptide tetramer+/CD4+ T cells after in vitro stimulation with the peptide: T2DQ6 pulsed with 1 μM peptide, co-culture with CD4+ T cells of T1N donors, IL-7/IL-2, with vs without peptide, n = 13 donors (HCRT peptides)
Experimental: Fig. 3 Tetramer^+/CD4^+ T cells in DQ6^+ donors. a Dot-plots of CD4^+ T cells stimulated in vitro with the indicated peptides followed by staining with the indicated tetramers. Frequencies (%) of tetramer^+/CD4^+ T cells are indicated. b Comparison between frequencies of tetramer^+ T cells from the same T1N donor (paired as indicated) with and without peptide stimulation. Significance (P < 0.05, bolded) is determined using the paired samples t-test (n = 13 donors). c Enrichment (with peptide stimulation vs. without) of DQ6-HCRT56–69 tetramer^+/CD4^+ T cells in HCRT87–100 peptide stimulated culture. d Frequencies or e tetramer-binding ranks (mean index fluorescence intensity) of tetramer^+ T cells from patients and controls (sample information summarized in Table 1) stained with the indicated tetramers. Statistical analysis compares control and patient samples within each tetramer specificity. Significance (P < 0.05, bolded) is determined using the unequal variance t-test. The error bar represents mean ± SEM
To test for the presence of DQ6-HCRTpeptide tetramer^+/CD4^+ T cells, a peptide-loaded antigen-presenting cell (APC) line T2DQ6 (fixed to limit APC proliferation) was co-cultured with T cells for DQ6-restricted antigen stimulation. T2DQ6 was constructed by stable transfection of DQ6 (DQA1*01:02/DQB1*06:02) into T2, a class II-deficient TxB hybrid cell[31]. T2DQ6 cells were maintained in IMDM, GlutaMAX supplemented media (Thermo Fisher Scientific) with 10% HI FBS, 1% penicillin/streptomycin (P/S) and 1 mg/ml G418 (to maintain selective pressure on DQ6 transfectants). To load antigen, T2DQ6 cells were pulsed with peptides (i.e., EBV486–500, HCRT56–69, HCRT87–100, synthesized by Genscript) at 1 μM final concentration and incubated for 6 h at 37 °C. After peptide loading, 10 million T2DQ6 cells were washed with phosphate buffered saline (PBS) and then fixed by incubating with 0.025% glutaraldehyde in 2 ml PBS at RT for 30 s. After the addition of another 2 ml PBS, the cells were incubated for another 10 min at RT. Fixed T2DQ6 was washed twice with PBS and once with complete RPMI (RPMI 1640 medium supplemented with 10% HI human AB serum, 2 mM glutamine and 1% PS, Thermo Fisher Scientific) before mixing with CD4^+ T cells. Human PBMCs frozen in NUNC tubes were thawed quickly at 37 °C and added slowly to 10 ml warm complete RPMI. PBMCs were pelleted and resuspended in cold buffer for CD4^+ T cell isolation. Cells were isolated from the PBMCs by negative selection, using the CD4^+ cell isolation kit, according to the manufacturer’s instructions (Miltenyi Biotec). […]

[3] = molecular target: soluble DQ6 (HLA-DQA1*01:02/DQB1*06:02) (Homo sapiens, UniProt P01909+P01920, A157G/A45G/C70R/E118A/E183D/E77G/F83G/G63E/H151Q/H199R/H252R/H253Q/I129T/I235V/I88M/INS77G/K197Q/L117V/L119F/L178F/L71W/L74F/L85Q/L91A/L98M/N214S/P87R/Q116E/Q76K/R102G/R240Q/R75S/R78G/S102Y/S185I/S41F/S97I/T121G/T122I/T172A/T86R/V229M/V68A/V73E/Y34C/Y41F/Y58L); assay: Peptide competition assay: inhibition of DQ6 binding of biotinylated EBV486–500; conditions: test peptide 40 μM, 20 h
Experimental: To identify DQ6-restricted T epitopes in prepro-HCRT (the HCRT precursor), we used a modified version of the peptide-loading assay[31] in which HCRT peptides were tested for the ability to inhibit DQ6-binding of EBV486–500, a known DQ6-binding epitope derived from Epstein-Bar virus. We evaluated overlapping 15-mer peptides, offset by four amino acids (aa), covering the entire prepro-HCRT sequence (Supplementary Data 1). […] These were consistent with in silico peptide-binding predictions using the NetMHCIIpan3.2 software[33] (Supplementary Fig. 1a–c). The nine peptides span five regions (i–v) of prepro-HCRT. A strong binder (>75% competition), HCRT1–15, was within the signal peptide region (i) and contained a 9-aa core, […], previously shown to bind DQ6 by X-ray structure. Two overlapping peptides span the C-terminus of the signal peptide and N-terminus of the secreted HCRT1 neurotransmitter. This region (ii) contained three possible registers as predicted by NetMHCIIpan3.2 using nonamers (Supplementary Fig. 1d). […]
Fig. 2 DQ6-binding cores in prepro-HCRT and their structural impacts. a Thirty overlapping peptides covering prepro-HCRT were added, individually, into a reaction containing soluble DQ6, bio-EBV486–500 peptide, and HLA-DM (a peptide loading catalyst). DQ6-associated bio-EBV486–500 was measured at steady state by ELISA[31]. %Competition = 1−%DQ6/EBV binding. […]

| Substance | TCR-mediated signaling (luciferase activity) of TCR27 transfectants [1] | Frequency of corresponding DQ6-peptide tetramer+/CD4+ T cells after in vitro stimulation with the peptide [2] | also measured |
| --- | --- | --- | --- |
| SGNHAAGILTMGRR [HCRT87–100] | moderate TCR-mediated signaling | significantly increased | DQ6-HCRT56–69 tetramer+/CD4+ T cells in HCRT87–100 peptide stimulated culture ([2]; with peptide stimulation vs without, some T1N donors): in vitro enrichment |
| MNLPSTKVSWAAVTL [Hcrt1-15, 15-mer overlapping peptide of prepro-HCRT] |  |  | %Competition (inhibition of the indicator EBV peptide binding to DQ6) ([3]; 1 μM biotinylated EBV486–500, 25 nM thrombin-cleaved DQ6-CLIP87–101, 100 nM DM, acetate pH 4.6, 37 °C, DELFIA Eu-streptavidin time-resolved fluorescence, %Competition = 1−%DQ6/EBV binding, mean, n = 4): > 75% |
| EBV486-500: known DQ6-binding epitope derived from Epstein-Barr virus nuclear antigen; positive control peptide [reference compound] |  | enrichment |  |
| AGNHAAGILTLGKR [HCRT56–69] |  | significantly increased |  |
| MNLPSTKVSWAAV [HCRT1–13] | null function |  |  |
| ALLSSGAAAQPLPDC [Hcrt25-39, 15-mer overlapping peptide of prepro-HCRT] |  |  | DQ6 binder class by %Competition ([3]; same assay as E1, pH 4.6, 37 °C): strong |
| SGNHAAGILTM-NH2 [HCRT87–97-NH2] | stronger signaling |  |  |
